Tested on: endometriosis
Assay: Intralesional administration of progesterone in women with endometriosis (case reports)
Type: in vivo, human
Conditions: person, 1 g intracystic and 1 g in each bladder nodule, follow up over 12 months
Method: They were regularly monitored by pain scores (visual analog), direct questionnaire, and ultrasound examination. […] Aspiration of the endometrioma and intracystic instillation of 1 g of progesterone was performed. Cystoscopy was carried out and 1 g of progesterone was instilled in each of the nodules in the bladder.

## CC(=O)[C@H]1CC[C@H]2[C@@H]3CCC4=CC(=O)CC[C@]4(C)[C@H]3CC[C@]12C [progesterone]
Ovarian endometrioma and bladder wall nodules
  symptoms on follow up: remained symptom free
  quality of life with regard to pelvic pain and urinary symptoms: good
